# From patent US8951993B2, “Phosphorus containing compounds as protein kinase inhibitors” (Jiangsu Hansoh Pharmaceutical Co., Ltd., priority 2011, dated 2015)
# Read-outs that look alike come from different tables or passages of the source.
# Experiments:
# ALK mutant L1196M = molecular target: T1, ALK mutant L1196M (Homo sapiens, UniProt Q9UM73, L1196M); experiment: Off-chip mobility shift assay (Carna Biosciences), ALK L1196M; format: biochemical
# T1 construct: purchased Carna Biosciences (Chuo-ku, Kobe, Japan)
# Procedure: (§1) The activities of ALK wild type, its mutant F1174L, R1275Q, L1196M and EML4-ALK, NPM1-ALK were also determined using off-chip mobility shift assay at Carna Biosciences (Chuo-ku, Kobe, Japan). In brief, 5 μL of ×4 compound solution, 5 μL of ×4 substrate/ATP/metal solution and 10 μL of ×2 kinase solution were prepared with assay buffer (20 mM HEPES, 0.01% Triton X-100, 2 mM DTT, pH 7.5) and mixed and incubated in a well of polypropylene 384 well microplate for 1 or 5 hours (depending on the enzyme). The ATP concentration used in the reaction was 50 μM for ALK wild type, F1174L mutant, EML4-ALK and NPM1-ALK, and 100 μM for R1275Q and 72 μM for L1196M. An aliquot of 60 μL of termination buffer (QuickScout Screening Assist MSA, Carna Biosciences) was added to each well to terminate the reactions. The reaction mixture was applied to LabChip3000 system (Caliper Life Science), and the product and substrate peptide peaks were separated and quantitated. The kinase reaction was evaluated by the product ratio calculated from peak heights of product (P) and substrate (S) peptides (P/(P+S)). IC50 value was calculated from concentration vs. % Inhibition curves by fitting to a four parameter logistic curve.
# ALK [1] = molecular target: T2, ALK (Homo sapiens, UniProt Q9UM73); experiment: Inhibition of ALK phosphorylation (sandwich ELISA, pY1604), cell line not given; format: cell-based; set-up: fused on or other part: Q9HC35 (Echinoderm microtubule-associated protein-like 4); settings: 1 hour, serum-free
# Procedure: (§2) Karpas299 and SU-DHL-1 cells were purchased from Deutsche Sammlung von Mikroorganismen and Zellkulturen (Germany). H2228 was purchased from American Type Culture Collection (USA). All cells were cultured in the recommended medium and serum concentration. Cells were maintained at 37° C. in a humidified atmosphere with 5% CO2. For ALK kinase phosphorylation, cells were seeded in 96-well plates overnight in medium supplemented with 10% fetal bovine serum […]. After 24 hours, the medium was removed and cells were cultured in serum-free medium at 37° C. in the presence of various concentrations of the test articles for 1 hour. After incubation with the tested articles, cells were washed once with HBSS supplemented with 1 mM Na3VO4 and protein lysates were generated. Subsequently, phosphorylation of ALK was assessed by a sandwich ELISA method using an immobilized anti-total-ALK antibody and an anti-phospho-ALK antibody (pY1604) as a detection antibody. IC50 value was calculated using median-effect method. (Chou 2006).
# Target sequence in this assay (Q9UM73 1058-1620 limits assumed): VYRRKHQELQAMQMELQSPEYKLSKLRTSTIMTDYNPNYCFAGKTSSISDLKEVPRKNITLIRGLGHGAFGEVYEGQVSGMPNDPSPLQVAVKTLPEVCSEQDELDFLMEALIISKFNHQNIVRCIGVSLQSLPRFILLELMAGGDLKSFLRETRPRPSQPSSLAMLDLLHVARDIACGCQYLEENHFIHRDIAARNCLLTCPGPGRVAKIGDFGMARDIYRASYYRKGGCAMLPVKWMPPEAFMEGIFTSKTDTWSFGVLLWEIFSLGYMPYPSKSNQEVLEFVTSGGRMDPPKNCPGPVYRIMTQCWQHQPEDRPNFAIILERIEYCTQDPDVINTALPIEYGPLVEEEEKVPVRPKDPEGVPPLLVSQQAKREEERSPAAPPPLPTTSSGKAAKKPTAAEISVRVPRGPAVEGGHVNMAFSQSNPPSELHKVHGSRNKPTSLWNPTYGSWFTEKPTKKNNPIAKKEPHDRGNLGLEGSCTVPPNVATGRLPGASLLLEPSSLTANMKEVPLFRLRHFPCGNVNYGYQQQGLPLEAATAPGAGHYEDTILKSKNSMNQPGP
# ALK mutant R1275Q = molecular target: T3, ALK mutant R1275Q (Homo sapiens, UniProt Q9UM73, R1275Q); experiment: Off-chip mobility shift assay (Carna Biosciences), ALK R1275Q; format: biochemical
# T3 construct: purchased Carna Biosciences (Chuo-ku, Kobe, Japan)
# Procedure: as §1
# ALK [2] = molecular target: T2, ALK; experiment: Inhibition of ALK phosphorylation (sandwich ELISA, pY1604) in SU-DHL-1 cells; format: cell-based; set-up: NPM1 portion (fusion partner, nucleophosmin, P06748); host or cells: Karpas299; SU-DHL-1; the other entry of the earlier key: NPM1 (P06748, Nucleophosmin); settings: 1 hour, serum-free
# Procedure: as §2
# Target sequence in this assay (Q9UM73 with tags, fused parts or gaps): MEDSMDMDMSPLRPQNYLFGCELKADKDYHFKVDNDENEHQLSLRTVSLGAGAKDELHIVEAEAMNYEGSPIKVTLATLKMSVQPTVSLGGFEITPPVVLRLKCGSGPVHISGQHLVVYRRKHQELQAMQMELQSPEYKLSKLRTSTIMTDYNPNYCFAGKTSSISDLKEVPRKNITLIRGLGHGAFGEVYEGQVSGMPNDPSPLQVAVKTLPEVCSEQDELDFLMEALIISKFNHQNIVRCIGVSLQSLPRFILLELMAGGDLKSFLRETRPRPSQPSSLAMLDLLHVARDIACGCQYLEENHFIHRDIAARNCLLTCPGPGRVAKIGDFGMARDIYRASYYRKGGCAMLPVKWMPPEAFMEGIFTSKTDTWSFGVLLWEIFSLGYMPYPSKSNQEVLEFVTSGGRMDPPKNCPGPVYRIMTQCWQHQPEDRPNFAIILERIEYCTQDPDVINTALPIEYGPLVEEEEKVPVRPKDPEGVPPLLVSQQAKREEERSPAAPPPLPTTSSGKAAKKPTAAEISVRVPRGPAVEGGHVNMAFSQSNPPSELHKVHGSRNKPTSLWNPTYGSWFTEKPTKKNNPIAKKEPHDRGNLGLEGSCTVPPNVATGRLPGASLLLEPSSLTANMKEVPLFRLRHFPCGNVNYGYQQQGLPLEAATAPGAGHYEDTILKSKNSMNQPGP
# SU-DHL-1 = experiment: Cell proliferation assay (MTS / BrdU), SU-DHL-1; format: cell-based; settings: Homo sapiens, 72 hours, 2% FBS
# Procedure: as §2
# (§3) For cell proliferation assay, cells were seeded in 96-well pates at low density at 37° C. in medium supplemented with 10% FBS and after 24 hours were switched to low serum medium (2% FBS). Cells were further incubated in the presence of the test articles at various concentrations at 37° C. for 72 hours. Two assays were employed to determine the relative cell numbers. One is a 3-(4,5-dimethylthiazol-2-yl)-5-(3-carboxymethoxyphenyl)-2-(4-sulfophenyl)-2H-tetrazolium (MTS) assay using a CellTiter 96® Aqueous Non-Radioactive Cell Proliferation kit (Promega), and the other is a BrdU incorporation assay using a DELFIA® Cell Proliferation Kit (Perkin Elmer). IC50 value was calculated using median-effect method (Chou 2006).
# NPM1-ALK = molecular target: T4, NPM1-ALK (Homo sapiens, UniProt Q9UM73); experiment: Off-chip mobility shift assay (Carna Biosciences), NPM1-ALK; format: biochemical
# T4 construct: purchased Carna Biosciences (Chuo-ku, Kobe, Japan); the other entry of the earlier key: NPM1 (P06748, Nucleophosmin)
# Procedure: as §1
# ALK [3] = molecular target: T2, ALK; experiment: Inhibition of ALK phosphorylation (sandwich ELISA, pY1604) in Karpas299 cells; format: cell-based; set-up: NPM1 portion (fusion partner, nucleophosmin, P06748); host or cells: Karpas299; SU-DHL-1; the other entry of the earlier key: NPM1 (P06748, Nucleophosmin); settings: 1 hour, serum-free
# Procedure: as §2
# ALK mutant F1174L = molecular target: T5, ALK mutant F1174L (Homo sapiens, UniProt Q9UM73, F1174L); experiment: Off-chip mobility shift assay (Carna Biosciences), ALK F1174L; format: biochemical
# T5 construct: purchased Carna Biosciences (Chuo-ku, Kobe, Japan)
# Procedure: as §1
# EML4-ALK = molecular target: T6, EML4-ALK (Homo sapiens, UniProt Q9UM73); experiment: Off-chip mobility shift assay (Carna Biosciences), EML4-ALK; format: biochemical
# T6 construct: purchased Carna Biosciences (Chuo-ku, Kobe, Japan); the other entry of the earlier key: EML4 (Q9HC35, Echinoderm microtubule-associated protein-like 4)
# Procedure: as §1
# H2228 = experiment: Cell proliferation assay (MTS / BrdU), H2228; format: cell-based; settings: Homo sapiens, NCI-H2228; 72 hours, 2% FBS
# Procedure: as §2, §3
# [4] = system: lung cancer cell line H2228; experiment: H2228 xenograft studies in athymic mice; format: in vivo, athymic mice (nude/nud mouse); settings: for reduced the tumor size: 14 days oral dosing at 60 mg/kg (BID)
# Source text: Xenograft model was developed in athymic mice (nude/nud mouse) with lung cancer cell line H2228 purchased from the American Type Culture Collection Company (Manassas, Va., USA). In brief, H2228 cells (1×10^7) were implanted s.c. into the hind flank region of each mouse and allowed to grow to the designated size (c.a. 150-200 mm^3) before administration of the tested articles. The tested articles were given orally at various dose levels twice daily for 10-14 days. Tumor volume and body weight were measured during the experiments. Tumor regression values were determined using the standard approach.
# Karpas299 = experiment: Cell proliferation assay (MTS / BrdU), Karpas299; format: cell-based; settings: Homo sapiens, KARPAS-299; 72 hours, 2% FBS
# Procedure: as §2, §3
# ALK wild type = molecular target: T7, ALK wild type (Homo sapiens, UniProt Q9UM73); experiment: Off-chip mobility shift assay (Carna Biosciences), ALK wild type; format: biochemical
# T7 construct: purchased Carna Biosciences (Chuo-ku, Kobe, Japan)
# Procedure: as §1
# cytochrome P450 3A4 = cytochrome P450 3A4 (Homo sapiens, UniProt P08684); settings: reported; causing clinical drug-drug interactions; cited from earlier work
# [5] = footnote #: L1196M, read-out: IC50 ALK Kinase (# mutant L1196M)
# [6] = mobility shift, ATP 72 μM, read-out: IC50 ALK L1196M
# [7] = footnote #: R1275Q, read-out: IC50 ALK Kinase (# mutant R1275Q)
# [8] = mobility shift, ATP 100 μM, read-out: IC50 ALK R1275Q
# [9] = footnote #: NPM1-ALK, read-out: IC50 ALK Kinase (# NPM1-ALK)
# [10] = mobility shift, ATP 50 μM, read-out: IC50 NPM1-ALK
# [11] = footnote #: F1174L, read-out: IC50 ALK Kinase (# mutant F1174L)
# [12] = mobility shift, ATP 50 μM, read-out: IC50 ALK F1174L
# [13] = footnote #: EML4-ALK, read-out: IC50 ALK Kinase (# EML4-ALK)
# [14] = mobility shift, ATP 50 μM, read-out: IC50 EML4-ALK
# [15] = footnote #: ALK wild type, read-out: IC50 ALK Kinase (# ALK wild type)
# [16] = mobility shift, ATP 50 μM, read-out: IC50 ALK wild type
# T6 sequence (Q9UM73 with tags, fused parts or gaps): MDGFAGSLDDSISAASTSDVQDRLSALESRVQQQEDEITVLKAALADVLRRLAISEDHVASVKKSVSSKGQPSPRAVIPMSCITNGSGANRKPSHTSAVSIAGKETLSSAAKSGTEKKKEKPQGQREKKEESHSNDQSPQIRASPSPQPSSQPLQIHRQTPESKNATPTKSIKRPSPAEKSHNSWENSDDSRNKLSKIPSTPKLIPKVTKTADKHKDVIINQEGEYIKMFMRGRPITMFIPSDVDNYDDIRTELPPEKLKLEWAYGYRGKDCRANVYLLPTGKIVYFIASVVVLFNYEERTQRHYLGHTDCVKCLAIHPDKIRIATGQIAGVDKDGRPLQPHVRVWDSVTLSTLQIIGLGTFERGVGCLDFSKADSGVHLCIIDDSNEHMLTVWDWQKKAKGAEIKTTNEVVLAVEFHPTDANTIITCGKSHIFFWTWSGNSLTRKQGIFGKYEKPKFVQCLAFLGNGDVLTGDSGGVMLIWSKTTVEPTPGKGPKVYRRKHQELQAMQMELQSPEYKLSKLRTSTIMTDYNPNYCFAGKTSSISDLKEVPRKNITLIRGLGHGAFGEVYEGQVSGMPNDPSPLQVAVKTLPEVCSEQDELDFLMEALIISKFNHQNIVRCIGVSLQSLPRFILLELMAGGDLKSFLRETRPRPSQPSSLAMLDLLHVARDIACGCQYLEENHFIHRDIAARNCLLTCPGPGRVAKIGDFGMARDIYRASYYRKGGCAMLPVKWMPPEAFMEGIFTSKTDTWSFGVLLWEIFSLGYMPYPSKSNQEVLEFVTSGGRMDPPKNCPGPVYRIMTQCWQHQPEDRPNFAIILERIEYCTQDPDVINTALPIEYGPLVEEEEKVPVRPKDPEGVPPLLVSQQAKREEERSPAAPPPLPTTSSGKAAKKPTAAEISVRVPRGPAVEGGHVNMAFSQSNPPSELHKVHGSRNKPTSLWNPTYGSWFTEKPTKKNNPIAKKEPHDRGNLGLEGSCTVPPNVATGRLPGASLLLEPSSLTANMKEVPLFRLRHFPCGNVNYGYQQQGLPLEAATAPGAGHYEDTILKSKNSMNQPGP
# T1 sequence (Q9UM73 19-1620 L1196M): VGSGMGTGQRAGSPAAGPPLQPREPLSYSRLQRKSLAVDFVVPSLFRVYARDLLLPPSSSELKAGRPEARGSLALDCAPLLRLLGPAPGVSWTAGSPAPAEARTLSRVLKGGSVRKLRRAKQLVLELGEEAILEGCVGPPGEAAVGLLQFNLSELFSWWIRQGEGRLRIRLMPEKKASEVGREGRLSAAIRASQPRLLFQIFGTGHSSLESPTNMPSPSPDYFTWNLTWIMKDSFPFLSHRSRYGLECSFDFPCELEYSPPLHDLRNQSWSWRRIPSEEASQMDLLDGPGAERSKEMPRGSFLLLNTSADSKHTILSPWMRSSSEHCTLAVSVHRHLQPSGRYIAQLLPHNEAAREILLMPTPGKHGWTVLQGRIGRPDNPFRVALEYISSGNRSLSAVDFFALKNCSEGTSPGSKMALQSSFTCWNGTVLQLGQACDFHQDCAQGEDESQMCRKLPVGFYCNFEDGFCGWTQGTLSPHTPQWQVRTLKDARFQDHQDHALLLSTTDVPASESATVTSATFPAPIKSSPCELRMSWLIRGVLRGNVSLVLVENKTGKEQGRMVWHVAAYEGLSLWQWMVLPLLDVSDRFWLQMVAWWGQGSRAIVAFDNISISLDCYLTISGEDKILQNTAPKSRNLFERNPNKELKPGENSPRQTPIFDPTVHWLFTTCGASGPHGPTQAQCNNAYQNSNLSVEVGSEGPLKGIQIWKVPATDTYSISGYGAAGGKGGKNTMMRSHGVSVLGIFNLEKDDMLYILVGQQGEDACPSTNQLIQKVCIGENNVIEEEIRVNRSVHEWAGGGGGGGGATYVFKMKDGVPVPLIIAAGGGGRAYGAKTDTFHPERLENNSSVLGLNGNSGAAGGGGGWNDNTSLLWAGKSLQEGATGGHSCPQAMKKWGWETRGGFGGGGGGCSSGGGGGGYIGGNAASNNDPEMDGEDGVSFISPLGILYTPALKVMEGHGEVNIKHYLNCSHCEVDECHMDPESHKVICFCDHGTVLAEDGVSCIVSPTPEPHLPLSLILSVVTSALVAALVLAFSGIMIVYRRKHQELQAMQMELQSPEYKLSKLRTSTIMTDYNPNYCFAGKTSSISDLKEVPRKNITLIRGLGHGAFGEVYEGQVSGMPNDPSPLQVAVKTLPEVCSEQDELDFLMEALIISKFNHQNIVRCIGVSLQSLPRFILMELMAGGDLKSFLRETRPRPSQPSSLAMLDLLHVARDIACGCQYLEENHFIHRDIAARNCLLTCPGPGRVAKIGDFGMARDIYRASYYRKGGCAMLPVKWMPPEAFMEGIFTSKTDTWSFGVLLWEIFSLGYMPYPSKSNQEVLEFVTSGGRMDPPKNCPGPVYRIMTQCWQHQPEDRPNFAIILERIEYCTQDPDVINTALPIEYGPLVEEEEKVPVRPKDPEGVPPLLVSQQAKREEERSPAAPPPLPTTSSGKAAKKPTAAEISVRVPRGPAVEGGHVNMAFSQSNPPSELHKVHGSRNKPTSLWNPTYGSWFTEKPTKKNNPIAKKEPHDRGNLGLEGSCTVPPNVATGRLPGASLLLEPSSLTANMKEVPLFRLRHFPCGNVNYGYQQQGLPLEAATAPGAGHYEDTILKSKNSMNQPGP
# T3 sequence (Q9UM73 19-1620 R1275Q): as the sequence (Q9UM73 19-1620 L1196M) above, with M1178L, R1257Q counted along it
# T5 sequence (Q9UM73 19-1620 F1174L): as the sequence (Q9UM73 19-1620 L1196M) above, with F1156L, M1178L counted along it
# T7 sequence (Q9UM73 19-1620): as the sequence (Q9UM73 19-1620 L1196M) above, with M1178L counted along it
# cytochrome P450 3A4, sequence (P08684 whole entry): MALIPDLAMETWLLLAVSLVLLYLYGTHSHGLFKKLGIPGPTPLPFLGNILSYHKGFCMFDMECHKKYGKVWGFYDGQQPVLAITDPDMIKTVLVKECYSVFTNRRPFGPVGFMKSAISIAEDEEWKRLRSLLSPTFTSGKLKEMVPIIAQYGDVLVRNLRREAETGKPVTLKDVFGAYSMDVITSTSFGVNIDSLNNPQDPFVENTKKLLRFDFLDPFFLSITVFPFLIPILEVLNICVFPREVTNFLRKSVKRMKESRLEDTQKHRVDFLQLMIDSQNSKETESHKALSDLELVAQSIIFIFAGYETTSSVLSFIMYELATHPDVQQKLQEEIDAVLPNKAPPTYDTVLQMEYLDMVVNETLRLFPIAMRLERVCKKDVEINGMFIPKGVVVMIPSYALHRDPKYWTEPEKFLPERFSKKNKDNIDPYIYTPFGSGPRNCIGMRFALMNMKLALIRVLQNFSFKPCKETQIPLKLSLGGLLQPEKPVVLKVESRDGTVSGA
IC50 (ALK mutant L1196M; [5]) [nM],IC50 (ALK mutant L1196M; [6]) [nM],IC50 (ALK [1]) [nM],IC50 (ALK mutant R1275Q; [7]) [nM],IC50 (ALK mutant R1275Q; [8]) [nM],IC50 (ALK [2]) [nM],IC50 (SU-DHL-1) [nM],IC50 (NPM1-ALK; [9]) [nM],IC50 (NPM1-ALK; [10]) [nM],IC50 (ALK [3]) [nM],IC50 (ALK mutant F1174L; [11]) [nM],IC50 (ALK mutant F1174L; [12]) [nM],IC50 (EML4-ALK; [13]) [nM],IC50 (EML4-ALK; [14]) [nM],IC50 (H2228) [nM],IC50 (Karpas299) [nM],IC50 (ALK wild type; [15]) [nM],SMILES,inhibition of tumor growth compared to the vehicle control ([4]; 20 mg/kg oral BID) [%],inhibition of tumor growth compared to the vehicle control ([4]; 60 mg/kg oral BID) [%],reduced the tumor size [4],also measured
< 100,< 50,< 50,< 100,< 50,< 50,< 100,< 100,< 50,< 100,< 100,< 50,< 100,< 50,< 100,< 100,< 100,"C[C@@H](Oc1cc(-c2ccc(P(C)(C)=O)cc2F)cnc1N)c1c(Cl)ccc(F)c1Cl [Example 25, 3-[(1R)-1-(2,6-dichloro-3-fluoro-phenyl)ethoxy]-5-(4-dimethylphosphoryl-2-fluoro-phenyl)pyridin-2-amine]",73,93,approximately 80%,inhibition of tumor growth compared to the vehicle control ([4]; 6 mg/kg oral BID): 46%; IC50 (ALK wild type; [16]): < 50 nM
< 100,< 50,< 50,< 100,< 50,< 50,< 100,< 100,< 50,< 100,< 100,< 50,< 100,< 50,< 100,< 100,< 100,"COc1cc(P(C)(C)=O)ccc1-c1cnc(N)c(O[C@H](C)c2c(Cl)ccc(F)c2Cl)c1 [Example 24, 3-[(1R)-1-(2,6-dichloro-3-fluoro-phenyl)ethoxy]-5-(4-dimethylphosphoryl-2-methoxy-phenyl)pyridin-2-amine]",79,93,approximately 80%,IC50 (ALK wild type; [16]): < 50 nM
–,–,–,–,–,–,–,–,–,–,–,–,–,–,–,–,–,C[C@@H](Oc1cc(-c2cnn(C3CCNCC3)c2)cnc1N)c1c(Cl)ccc(F)c1Cl [crizotinib],–,–,–,cytochrome P450 3A4 inhibition (cytochrome P450 3A4): time-dependent cytochrome P450 3A4 inhibitor
